Columns and labels:
Assay in all cases: relative viability (nuclei count vs DMSO), 5 days (fraction); higher = more cells survive
IU1-47 + Dasatinib = compound: CC1=CC(=C(N1C2=CC=C(C=C2)Cl)C)C(=O)CN3CCCCC3 [IU1-47] + Cc1nc(Nc2ncc(C(=O)Nc3c(C)cccc3Cl)s2)cc(N2CCN(CCO)CC2)n1 [Dasatinib] (partner 0.075 µM)
How it was run: (§1)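 For relative viability, nuclei counts in treated wells were divided by those in vehicle wells. Lung cancer cell lines had been pin-tool dosed in 1536-well plates the day after seeding and cultured for 5 days, then fixed and stained in one step (final 0.05% Triton X-100, 1% formaldehyde, 1 ug/ml Hoechst) and imaged at 4×. Doses were one drug alone or a fixed anchor-drug dose plus five library-drug doses (not always all listed) in √10 steps, and values are duplicate-plate medians.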

IU1-47 + Alpelisib = compound: CC1=CC(=C(N1C2=CC=C(C=C2)Cl)C)C(=O)CN3CCCCC3 [IU1-47] + Cc1nc(NC(=O)N2CCC[C@H]2C(N)=O)sc1-c1ccnc(C(C)(C)C(F)(F)F)c1 [Alpelisib] (partner 2 µM)
How it was run: as §1

FG-4592 + Phenformin = compound: Cc1nc(C(=O)NCC(=O)O)c(O)c2ccc(Oc3ccccc3)cc12 [FG-4592] + N=C(N)NC(=N)NCCc1ccccc1 [Phenformin] (partner 250 µM)
How it was run: as §1

FG-4592 + Foretinib = compound: Cc1nc(C(=O)NCC(=O)O)c(O)c2ccc(Oc3ccccc3)cc12 [FG-4592] + COc1cc2c(Oc3ccc(NC(=O)C4(C(=O)Nc5ccc(F)cc5)CC4)cc3F)ccnc2cc1OCCCN1CCOCC1 [Foretinib] (partner 0.25 µM)
How it was run: as §1

Cell Line | relative viability (IU1-47 + Dasatinib; first compound 0.08 µM) | relative viability (IU1-47 + Dasatinib; first compound 0.253 µM) | relative viability (IU1-47 + Dasatinib; first compound 0.8 µM) | relative viability (IU1-47 + Dasatinib; first compound 2.53 µM) | relative viability (IU1-47 + Dasatinib; first compound 8 µM) | relative viability (IU1-47 + Alpelisib; first compound 0.08 µM) | relative viability (IU1-47 + Alpelisib; first compound 0.253 µM) | relative viability (IU1-47 + Alpelisib; first compound 0.8 µM) | relative viability (IU1-47 + Alpelisib; first compound 2.53 µM) | relative viability (IU1-47 + Alpelisib; first compound 8 µM) | relative viability (FG-4592 + Phenformin; first compound 0.08 µM) | relative viability (FG-4592 + Phenformin; first compound 0.253 µM) | relative viability (FG-4592 + Phenformin; first compound 0.8 µM) | relative viability (FG-4592 + Phenformin; first compound 2.53 µM) | relative viability (FG-4592 + Phenformin; first compound 8 µM) | relative viability (FG-4592 + Foretinib; first compound 0.08 µM) | relative viability (FG-4592 + Foretinib; first compound 0.253 µM) | relative viability (FG-4592 + Foretinib; first compound 0.8 µM) | relative viability (FG-4592 + Foretinib; first compound 2.53 µM) | relative viability (FG-4592 + Foretinib; first compound 8 µM)
CAL-12T | 0.413 | 0.388 | 0.436 | 0.263 | 0.344 | 1.31 | 1.39 | 1.47 | 1.18 | 0.823 | 0.593 | 0.51 | 0.56 | 0.546 | 0.542 | 1.05 | 0.746 | 1.06 | 1.02 | 1.01
COR-L23 | 0.517 | 0.504 | 0.585 | 0.537 | 0.551 | 0.686 | 0.947 | 0.869 | 0.951 | 0.975 | 0.467 | 0.375 | 0.477 | 0.411 | 0.437 | 0.856 | 0.832 | 1.03 | 0.982 | 0.991
COR-L 105 | 0.307 | 0.303 | 0.332 | 0.248 | 0.307 | 1.29 | 1.06 | 1.11 | 1.16 | 0.783 | 0.46 | 0.432 | 0.456 | 0.437 | 0.45 | 0.817 | 1.06 | 1.2 | 0.96 | 0.718
Calu-6 |  |  |  |  |  | 0.907 | 1.01 | 0.989 | 0.985 | 1.25 |  |  |  |  |  | 0.907 | 0.887 | 0.966 | 0.924 | 0.758

Reference: the supplement of paper PMC10307832
